Where two headings read alike, the source gives them in different places.
Molecular target: T1, PI3K delta (Homo sapiens, UniProt O00329)
T1 construct: for the full-length p110-d subunit are generated and fused by overlapping PCR; His tag (C); made in house; host or cells: baculovirus BV1060; Tn5 (Trichoplusia ni) or TiniPro insect cells
Assay: PI3K delta kinase assay (Kinase-Glo luminescence)
Assay type: biochemical
Outline: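 Kinase-Glo ATP-depletion luminescence using 10 nM p85(iSH2)-linker-p110δ full-length His-tag construct from insect cells, with 1 μM ATP and 10 μg/mL phosphatidylinositol in 10 mM Tris pH 7.5, 3 mM MgCl2, 50 mM NaCl, 0.05% CHAPS, 1 mM DTT. 60 min room temperature; IC50 from 4-parameter logistic fit over 8 concentrations.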

T1 sequence (O00329 with tags, fused parts or gaps limits assumed): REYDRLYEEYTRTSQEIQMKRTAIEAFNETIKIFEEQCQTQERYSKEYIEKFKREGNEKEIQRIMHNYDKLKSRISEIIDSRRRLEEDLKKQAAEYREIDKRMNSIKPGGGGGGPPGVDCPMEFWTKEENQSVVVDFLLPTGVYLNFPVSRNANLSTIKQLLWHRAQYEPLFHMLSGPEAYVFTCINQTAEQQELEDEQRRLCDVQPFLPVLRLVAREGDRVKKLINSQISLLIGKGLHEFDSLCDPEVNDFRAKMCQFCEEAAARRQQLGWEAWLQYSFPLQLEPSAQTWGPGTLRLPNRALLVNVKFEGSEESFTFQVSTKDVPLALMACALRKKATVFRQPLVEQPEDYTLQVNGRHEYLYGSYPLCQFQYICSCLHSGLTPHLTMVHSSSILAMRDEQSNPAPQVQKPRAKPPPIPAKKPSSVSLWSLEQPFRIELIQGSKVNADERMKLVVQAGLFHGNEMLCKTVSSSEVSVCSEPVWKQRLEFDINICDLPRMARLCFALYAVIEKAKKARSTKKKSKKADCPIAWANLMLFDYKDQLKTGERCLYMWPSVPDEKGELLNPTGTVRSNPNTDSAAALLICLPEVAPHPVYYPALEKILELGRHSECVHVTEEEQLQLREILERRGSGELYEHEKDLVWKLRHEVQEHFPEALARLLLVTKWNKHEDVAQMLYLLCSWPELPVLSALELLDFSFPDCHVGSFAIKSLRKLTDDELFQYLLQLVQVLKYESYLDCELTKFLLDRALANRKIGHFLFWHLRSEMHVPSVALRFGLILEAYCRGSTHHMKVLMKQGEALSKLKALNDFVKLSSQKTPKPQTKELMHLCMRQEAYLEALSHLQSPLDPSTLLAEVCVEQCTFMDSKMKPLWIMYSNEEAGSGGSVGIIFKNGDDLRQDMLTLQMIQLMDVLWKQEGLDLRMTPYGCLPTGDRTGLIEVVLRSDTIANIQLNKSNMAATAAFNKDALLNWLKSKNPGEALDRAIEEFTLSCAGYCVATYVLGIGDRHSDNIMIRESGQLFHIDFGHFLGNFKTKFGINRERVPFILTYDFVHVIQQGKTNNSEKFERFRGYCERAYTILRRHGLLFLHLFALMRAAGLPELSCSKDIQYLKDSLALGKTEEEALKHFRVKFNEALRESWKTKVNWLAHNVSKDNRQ

Compound: COc1cc(-c2ccc3ncc4c(c3c2)n(-c2ccc(F)nc2C)c(=O)n4C)cnc1CO [Example 7.10, 1-(6-Fluoro-2-methyl-pyridin-3-yl)-8-(6-hydroxymethyl-5-methoxy-pyridin-3-yl)-3-methyl-1,3-dihydro-imidazo[4,5-c]quinolin-2-one]
- IC50 (read-out: EPK_PI3Kdelta/IC50): 186 nM

Compound: Cc1nc(N2CC(O)C2)ccc1-n1c(=O)n(C)c2cnc3ccc(-c4cncc(C(C)(C)O)c4)cc3c21 [Example 29.1, 1-[6-(3-Hydroxy-azetidin-1-yl)-2-methyl-pyridin-3-yl]-8-[5-(1-hydroxy-1-methyl-ethyl)-pyridin-3-yl]-3-methyl-1,3-dihydro-imidazo[4,5-c]quinolin-2-one]
- IC50 (read-out: EPK_PI3Kdelta/IC50): 19 nM

Compound: COCc1ncc(-c2ccc3ncc4c(c3c2)n(-c2ccc(F)nc2C)c(=O)n4C)cc1OC [Example 7.7, 1-(6-Fluoro-2-methyl-pyridin-3-yl)-8-(5-methoxy-6-methoxymethyl-pyridin-3-yl)-3-methyl-1,3-dihydro-imidazo[4,5-c]quinolin-2-one]
- IC50 (read-out: EPK_PI3Kdelta/IC50): 79 nM

Compound: COc1cc(-c2ccc3ncc4c(c3c2)n(-c2ccc(N3CC(F)(F)C3)nc2C)c(=O)n4C)cnc1CO [Example 24.4, 1-[6-(3,3-Difluoro-azetidin-1-yl)-2-methyl-pyridin-3-yl]-8-(6-hydroxymethyl-5-methoxy-pyridin-3-yl)-3-methyl-1,3-dihydro-imidazo[4,5-c]quinolin-2-one]
- IC50 (read-out: EPK_PI3Kdelta/IC50): 248 nM

Compound: COc1cc(-c2ccc3ncc4c(c3c2)n(-c2ccc(N3CCCC3)nc2C)c(=O)n4C)cnc1CO [Example 25.4, 8-(6-Hydroxymethyl-5-methoxy-pyridin-3-yl)-3-methyl-1-(2-methyl-6-pyrrolidin-1-yl-pyridin-3-yl)-1,3-dihydro-imidazo[4,5-c]quinolin-2-one]
- IC50 (read-out: EPK_PI3Kdelta/IC50): 272 nM

Compound: COCc1ncc(-c2ccc3ncc4c(c3c2)n(-c2cccnc2C)c(=O)n4C)cc1OC [Example 2.30, 8-(5-Methoxy-6-methoxymethyl-pyridin-3-yl)-3-methyl-1-(2-methyl-pyridin-3-yl)-1,3-dihydro-imidazo[4,5-c]quinolin-2-one]
- IC50 (read-out: EPK_PI3Kdelta/IC50): 53 nM

Compound: CNc1ncc(-c2ccc3ncc4c(c3c2)n(-c2ccc(N3CC[C@H](O)C3)nc2C)c(=O)n4C)cc1Cl [Example 32.4, 8-(5-Chloro-6-methylamino-pyridin-3-yl)-1-[6-((S)-3-hydroxy-pyrrolidin-1-yl)-2-methyl-pyridin-3-yl]-3-methyl-1,3-dihydro-imidazo[4,5-c]quinolin-2-one]
- IC50 (read-out: EPK_PI3Kdelta/IC50): 5 nM

Compound: COc1cc(-c2ccc3ncc4c(c3c2)n(-c2ccc(N3CCC(OC)C3)nc2C)c(=O)n4C)cnc1CO (stereo not shown) [Example 28.3, 8-(6-Hydroxymethyl-5-methoxy-pyridin-3-yl)-1-[6-(3-methoxy-pyrrolidin-1-yl)-2-methyl-pyridin-3-yl]-3-methyl-1,3-dihydro-imidazo[4,5-c]quinolin-2-one]
- IC50 (read-out: EPK_PI3Kdelta/IC50): 42 nM

Compound: COc1ccc(-n2c(=O)n(C)c3cnc4ccc(-c5cncc(N6CCC6)c5)cc4c32)c(OC)n1 [Example 8.11, 8-(5-Azetidin-1-yl-pyridin-3-yl)-1-(2,6-dimethoxy-pyridin-3-yl)-3-methyl-1,3-dihydro-imidazo[4,5-c]quinolin-2-one]
- IC50 (read-out: EPK_PI3Kdelta/IC50): 126 nM

Compound: CNC(=O)c1ccc(-c2ccc3ncc4c(c3c2)n(-c2cccnc2C)c(=O)n4C)cc1 [Example 2.4, N-Methyl-4-[3-methyl-1-(2-methyl-pyridin-3-yl)-2-oxo-2,3-dihydro-1H-imidazo[4,5-c]quinolin-8-yl]-benzamide]
- IC50 (read-out: PI3Kdelta/IC50): 221 nM

Compound: COc1ccc(-n2c(=O)n(C)c3cnc4ccc(-c5cnc(C(OC)OC)c(OC)c5)cc4c32)c(OC)n1 [Example 8.13, 8-(6-Dimethoxymethyl-5-methoxy-pyridin-3-yl)-1-(2,6-dimethoxy-pyridin-3-yl)-3-methyl-1,3-dihydro-imidazo[4,5-c]quinolin-2-one]
- IC50 (read-out: EPK_PI3Kdelta/IC50): 167 nM

Compound: CNc1ncc(-c2ccc3ncc4c(c3c2)n(-c2ccc(N3CC[C@@H](O)C3)nc2C)c(=O)n4C)cn1 [Example 34.1, 1-[6-((R)-3-Hydroxy-pyrrolidin-1-yl)-2-methyl-pyridin-3-yl]-3-methyl-8-(2-methylamino-pyrimidin-5-yl)-1,3-dihydro-imidazo[4,5-c]quinolin-2-one]
- IC50 (read-out: EPK_PI3Kdelta/IC50): 42 nM

Compound: Cc1ncccc1-n1c(=O)n(C)c2cnc3ccc(-c4cnc5[nH]ccc5c4)cc3c21 [Example 2.8, 3-Methyl-1-(2-methyl-pyridin-3-yl)-8-(1H-pyrrolo[2,3-b]pyridin-5-yl)-1,3-dihydro-imidazo[4,5-c]quinolin-2-one]
- IC50 (read-out: PI3Kdelta/IC50): 35 nM

Compound: Cc1nc(N2CCC(O)C2)ccc1-n1c(=O)n(C)c2cnc3ccc(-c4cncc(C(C)(C)O)c4)cc3c21 (stereo not shown) [Example 27.5, 8-[5-(1-Hydroxy-1-methyl-ethyl)-pyridin-3-yl]-1-[6-(3-hydroxy-pyrrolidin-1-yl)-2-methyl-pyridin-3-yl]-3-methyl-1,3-dihydro-imidazo[4,5-c]quinolin-2-one]
- IC50 (read-out: EPK_PI3Kdelta/IC50): 148 nM

Compound: CCNc1cc(-c2ccc3ncc4c(c3c2)n(-c2ccc(N3CCCC3)nc2C)c(=O)n4C)cnc1CO [Example 25.5, 8-(5-Ethylamino-6-hydroxymethyl-pyridin-3-yl)-3-methyl-1-(2-methyl-6-pyrrolidin-1-yl-pyridin-3-yl)-1,3-dihydro-imidazo[4,5-c]quinolin-2-one]
- IC50 (read-out: EPK_PI3Kdelta/IC50): 33 nM

Compound: Cc1nc(F)ccc1-n1c(=O)n(C)c2cnc3ccc(-c4cncc(N5CCC5)c4)cc3c21 [Example 7.6, 8-(5-Azetidin-1-yl-pyridin-3-yl)-1-(6-fluoro-2-methyl-pyridin-3-yl)-3-methyl-1,3-dihydro-imidazo[4,5-c]quinolin-2-one]
- IC50 (read-out: EPK_PI3Kdelta/IC50): 148 nM

Compound: CCNc1cc(-c2ccc3ncc4c(c3c2)n(-c2ccc(N3CC(F)(F)C(F)(F)C3)nc2C)c(=O)n4C)cnc1CO [Example 35.2, 8-(5-Ethylamino-6-hydroxymethyl-pyridin-3-yl)-3-methyl-1-[2-methyl-6-(3,3,4,4-tetrafluoro-pyrrolidin-1-yl)-pyridin-3-yl]-1,3-dihydro-imidazo[4,5-c]quinolin-2-one]
- IC50 (read-out: EPK_PI3Kdelta/IC50): 10 nM

Compound: COc1cc(-c2ccc3ncc4c(c3c2)n(-c2ccc(N3CC[C@H](O)C3)nc2C)c(=O)n4C)cnc1CO [Example 32.7, 8-(6-Hydroxymethyl-5-methoxy-pyridin-3-yl)-1-[6-((S)-3-hydroxy-pyrrolidin-1-yl)-2-methyl-pyridin-3-yl]-3-methyl-1,3-dihydro-imidazo[4,5-c]quinolin-2-one]
- IC50 (read-out: EPK_PI3Kdelta/IC50): 35 nM

Compound: COc1ccc(-n2c(=O)n(C)c3cnc4ccc(-c5cnc(CO)c(OC)c5)cc4c32)c(OC)n1 [Example 8.14, 1-(2,6-Dimethoxy-pyridin-3-yl)-8-(6-hydroxymethyl-5-methoxy-pyridin-3-yl)-3-methyl-1,3-dihydro-imidazo[4,5-c]quinolin-2-one]
- IC50 (read-out: EPK_PI3Kdelta/IC50): 311 nM

Compound: CCNc1cc(-c2ccc3ncc4c(c3c2)n(-c2ccc(N(C)CCO)nc2C)c(=O)n4C)cnc1CO [Example 26.3, 8-(5-Ethylamino-6-hydroxymethyl-pyridin-3-yl)-1-{6-[(2-hydroxy-ethyl)-methyl-amino]-2-methyl-pyridin-3-yl}-3-methyl-1,3-dihydro-imidazo[4,5-c]quinolin-2-one]
- IC50 (read-out: EPK_PI3Kdelta/IC50): 287 nM

Compound: CCOc1ccc(-c2ccc3ncc4c(c3c2)n(-c2ccc(N3CCC(O)C3)nc2C)c(=O)n4C)cn1 (stereo not shown) [Example 27.4, 8-(6-Ethoxy-pyridin-3-yl)-1-[6-(3-hydroxy-pyrrolidin-1-yl)-2-methyl-pyridin-3-yl]-3-methyl-1,3-dihydro-imidazo[4,5-c]quinolin-2-one]
- IC50 (read-out: EPK_PI3Kdelta/IC50): 193 nM

Compound: Cn1c(=O)n(-c2cccnc2F)c2c3cc(-c4cnc5[nH]ccc5c4)ccc3ncc21 [Example 6.3, 1-(2-Fluoro-pyridin-3-yl)-3-methyl-8-(1H-pyrrolo[2,3-b]pyridin-5-yl)-1,3-dihydro-imidazo[4,5-c]quinolin-2-one]
- IC50 (read-out: PI3Kdelta/IC50): 78 nM

Compound: CNc1ncc(-c2ccc3ncc4c(c3c2)n(-c2ccc(N3CCC(OC)C3)nc2C)c(=O)n4C)cn1 (stereo not shown) [Example 28.2, 1-[6-(3-Methoxy-pyrrolidin-1-yl)-2-methyl-pyridin-3-yl]-3-methyl-8-(2-methylamino-pyrimidin-5-yl)-1,3-dihydro-imidazo[4,5-c]quinolin-2-one]
- IC50 (read-out: EPK_PI3Kdelta/IC50): 159 nM

Compound: COc1cc(-c2ccc3ncc4c(c3c2)n(-c2ccc(N)nc2C)c(=O)n4C)cnc1CO [Example 30.1, 1-(6-Amino-2-methyl-pyridin-3-yl)-8-(6-hydroxymethyl-5-methoxy-pyridin-3-yl)-3-methyl-1,3-dihydro-imidazo[4,5-c]quinolin-2-one]
- IC50 (read-out: EPK_PI3Kdelta/IC50): 118 nM

Compound: Cc1nc(N2CCC(O)C2)ccc1-n1c(=O)n(C)c2cnc3ccc(-c4cnc(N)c(C(F)(F)F)c4)cc3c21 (stereo not shown) [Example 27.3, 8-(6-Amino-5-trifluoromethyl-pyridin-3-yl)-1-[6-(3-hydroxy-pyrrolidin-1-yl)-2-methyl-pyridin-3-yl]-3-methyl-1,3-dihydro-imidazo[4,5-c]quinolin-2-one]
- IC50 (read-out: EPK_PI3Kdelta/IC50): < 3 nM

Source: patent US20100311714A1, “1H-IMIDAZO[4,5-c]QUINOLINONE COMPOUNDS” (priority 2009, published 2010)
